≈ marks a conversion by molar mass, not a printed value. Read-outs that look alike come from different tables or passages of the source. Positions of bridges follow the written chain, without caps; N, C: chain ends. Non-standard residues stand in square brackets, D forms with d. Residues, ends and D or L forms follow the SMILES beside them. S5 = C=CCCC[C@](C)(N)C(=O)O; Nle = CCCC[C@H](N)C(=O)O Bounds are passed on as bounds.

Common to all, as to format: cell-based
One experiment has as its system B cereus. The method, then: (§1) The following microbroth dilution protocol was adapted to determine the minimum inhibitory concentration (MIC) of each peptide. First, Mueller-Hinton broth (MHB) was passed through an anion exchange column to remove polyanionic species and generate refined MHB. […] Briefly, bacterial cells were grown overnight in refined MHB at 37° C. and then diluted and allowed to grow again for several hours. Serial dilutions of peptide stocks in water (10 μl) were prepared using clear round-bottom polypropylene 96-well plates. Then 90 μl of bacteria in refined MHB was added to give a final inoculum of 5×10^5 CFU/ml. The plates were then covered with porous tape to reduce evaporation, and incubated for 20-24 hours at 37° C. The MIC is the minimum peptide concentration at which no visible growth was observed.

Another experiment relates to S aureus. The method, then: as §1
The subject of another experiment is E coli. How it is done:
as §1

Another experiment has as its system P aeruginosa. The method, then: as §1
The subject of experiment [1] is E. coli clinical isolates that harbor the MCR-1 plasmid. How it is done: (§2) StAMPs were screened against a panel of MDR clinical samples obtained from the Antimicrobial Resistance Isolate Bank of the Centers for Disease Control and Prevention (Atlanta, Ga.).
as §1
(§3) The first three StAMPs of Table 2 in Example 3 were then tested against 39 clinical isolates of A. baumannii with various degrees of colistin resistance (Table 3, 4).

Experiment [2] has as its system A. baumannii clinical isolates. The method, then: as §2, §1, §3

Regarding `CCCC[C@H](NC(=O)[C@]1(C)CCCC=CCCC[C@](C)(NC(=O)[C@H](C)NC(=O)[C@H](CCCCN)NC(=O)CNC(=O)[C@H](Cc2ccccc2)NC(=O)[C@H](Cc2c[nH]cn2)NC(=O)[C@H](Cc2c[nH]cn2)NC(=O)[C@H](CCCCN)NC(=O)[C@H](CO)NC(=O)[C@H](Cc2c[nH]cn2)NC(=O)[C@]2(C)CCCC=CCCC[C@](C)(NC(=O)CN)C(=O)NCC(=O)N[C@@H](Cc3c[nH]cn3)C(=O)N[C@@H](Cc3ccccc3)C(=O)N2)C(=O)N[C@@H](C(C)C)C(=O)NCC(=O)N[C@@H](CCC(=O)O)C(=O)N1)C(=O)N[C@@H](CC(N)=O)C(=O)N[C@@H](CO)C(N)=O` [Mag(i+4)1,15(A9K, K4H, K10H, K11H), GXGHFXHSKHHFGKAXVGEXBNS] (H-G[S5]GHF[S5]HSKHHFGKA[S5]VGE[S5][Nle]NS-NH2; staple 2-6, 16-20), the “MIC B cereus” value in the experiment on B cereus was more than 50 µg/mL. Moreover, in the experiment on S aureus, the “MIC S aureus” value is more than 50 µg/mL. Also, the “MIC E coli” value with E coli came to 17.7 µg/mL (≈ 6.95 µM). The “MIC P aeruginosa” value in the experiment on P aeruginosa is 50 µg/mL (≈ 19.6 µM).
Turning to `CCCC[C@H](NC(=O)[C@]1(C)CCCC=CCCC[C@](C)(NC(=O)[C@H](C)NC(=O)[C@H](CCCCN)NC(=O)CNC(=O)[C@H](Cc2ccccc2)NC(=O)[C@H](CCCCN)NC(=O)[C@H](CCCNC(=N)N)NC(=O)[C@H](CCCCN)NC(=O)[C@H](CO)NC(=O)[C@H](Cc2c[nH]cn2)NC(=O)[C@]2(C)CCCC=CCCC[C@](C)(NC(=O)CN)C(=O)NCC(=O)N[C@@H](CCCNC(=N)N)C(=O)N[C@@H](Cc3ccccc3)C(=O)N2)C(=O)N[C@@H](C(C)C)C(=O)NCC(=O)N[C@@H](CCC(=O)O)C(=O)N1)C(=O)N[C@@H](CC(N)=O)C(=O)N[C@@H](CO)C(N)=O` [Mag(i+4)1,15(A9K, K4R, K10R), GXGRFXHSKRKFGKAXVGEXBNS] (H-G[S5]GRF[S5]HSKRKFGKA[S5]VGE[S5][Nle]NS-NH2; staple 2-6, 16-20), the “MIC B cereus” value with B cereus is 12.5 µg/mL (≈ 4.85 µM). The “MIC S aureus” value in the experiment with S aureus was more than 50 µg/mL. For the same compound, in the experiment on E coli, the “MIC E coli” value was 3.1 µg/mL (≈ 1.2 µM). Moreover, the “MIC P aeruginosa” value in the experiment with P aeruginosa worked out at 6.2 µg/mL (≈ 2.41 µM).
The corresponding values for `CCCC[C@H](NC(=O)[C@]1(C)CCCC=CCCC[C@](C)(NC(=O)[C@H](C)NC(=O)[C@H](CCCCN)NC(=O)CNC(=O)[C@H](Cc2ccccc2)NC(=O)[C@H](CCCCN)NC(=O)[C@H](Cc2c[nH]cn2)NC(=O)[C@H](CCCCN)NC(=O)[C@H](CO)NC(=O)[C@H](Cc2c[nH]cn2)NC(=O)[C@]2(C)CCCC=CCCC[C@](C)(NC(=O)CN)C(=O)NCC(=O)N[C@@H](Cc3c[nH]cn3)C(=O)N[C@@H](Cc3ccccc3)C(=O)N2)C(=O)N[C@@H](C(C)C)C(=O)NCC(=O)N[C@@H](CCC(=O)O)C(=O)N1)C(=O)N[C@@H](CC(N)=O)C(=O)N[C@@H](CO)C(N)=O` [Mag(i+4)1,15(A9K, K4H, K10H), GXGHFXHSKHKFGKAXVGEXBNS] (H-G[S5]GHF[S5]HSKHKFGKA[S5]VGE[S5][Nle]NS-NH2; staple 2-6, 16-20) are 50 µg/mL (≈ 19.7 µM), more than 50 µg/mL, 3.1 µg/mL (≈ 1.22 µM) and 50 µg/mL (≈ 19.7 µM).
In the case of Colistin [reference compound], the “Antimicrobial Activity MIC” value was 2.5 µg/mL in experiment [1] (E. coli CDC Bank# 346, contains MCR-1 plasmid); 1.2 µg/mL in experiment [1] (E. coli CDC Bank# 349, contains MCR-1 plasmid); 1 µg/mL in experiment [2] (A. baumannii CDC Bank# 275); 2 µg/mL in experiment [2] (A. baumannii CDC Bank# 276); 1 µg/mL in experiment [2] (A. baumannii CDC Bank# 277); 1 µg/mL in experiment [2] (A. baumannii CDC Bank# 278). Also, the “Antimicrobial Activity MIC” value in experiment [2] (A. baumannii CDC Bank# 279) is 1 µg/mL; in experiment [2] (A. baumannii CDC Bank# 280), 1 µg/mL; in experiment [2] (A. baumannii CDC Bank# 281), 1 µg/mL; in experiment [2] (A. baumannii CDC Bank# 282) it was 0.5 µg/mL; in experiment [2] (A. baumannii CDC Bank# 283), 1 µg/mL; in experiment [2] (A. baumannii CDC Bank# 284), 1 µg/mL. Moreover, the “Antimicrobial Activity MIC” value in experiment [2] (A. baumannii CDC Bank# 285) was 1 µg/mL; in experiment [2] (A. baumannii CDC Bank# 286), 0.5 µg/mL; in experiment [2] (A. baumannii CDC Bank# 287), 1 µg/mL; in experiment [2] (A. baumannii CDC Bank# 288) it was more than 8 µg/mL; in experiment [2] (A. baumannii CDC Bank# 289) it was 2 µg/mL; in experiment [2] (A. baumannii CDC Bank# 290), 1 µg/mL. In addition, the “Antimicrobial Activity MIC” value in experiment [2] (A. baumannii CDC Bank# 291) stood at 1 µg/mL; in experiment [2] (A. baumannii CDC Bank# 292) it was 1 µg/mL; in experiment [2] (A. baumannii CDC Bank# 293), 0.5 µg/mL; in experiment [2] (A. baumannii CDC Bank# 294), 1 µg/mL; in experiment [2] (A. baumannii CDC Bank# 295) it was 1 µg/mL; in experiment [2] (A. baumannii CDC Bank# 296), 0.5 µg/mL. Moreover, the “Antimicrobial Activity MIC” value in experiment [2] (A. baumannii CDC Bank# 297) came to 1 µg/mL; in experiment [2] (A. baumannii CDC Bank# 298), 0.5 µg/mL; in experiment [2] (A. baumannii CDC Bank# 299), 2 µg/mL; in experiment [2] (A. baumannii CDC Bank# 300), 1 µg/mL; in experiment [2] (A. baumannii CDC Bank# 301), 0.5 µg/mL; in experiment [2] (A. baumannii CDC Bank# 302), 2 µg/mL. Further, the “Antimicrobial Activity MIC” value in experiment [2] (A. baumannii CDC Bank# 303) was more than 8 µg/mL; in experiment [2] (A. baumannii CDC Bank# 304), 4 µg/mL; in experiment [2] (A. baumannii CDC Bank# 305) it was 1 µg/mL; in experiment [2] (A. baumannii CDC Bank# 306) it was 1 µg/mL; in experiment [2] (A. baumannii CDC Bank# 307), more than 8 µg/mL; in experiment [2] (A. baumannii CDC Bank# 308) it was 8 µg/mL. Besides, the “Antimicrobial Activity MIC” value stood at 8 µg/mL in experiment [2] (A. baumannii CDC Bank# 309); 8 µg/mL in experiment [2] (A. baumannii CDC Bank# 310); 1 µg/mL in experiment [2] (A. baumannii CDC Bank# 311); 0.5 µg/mL in experiment [2] (A. baumannii CDC Bank# 312); 1 µg/mL in experiment [2] (A. baumannii CDC Bank# 313).
As for `CCCC[C@H](NC(=O)[C@]1(C)CCCC=CCCC[C@](C)(NC(=O)[C@H](C)NC(=O)[C@H](CCCCN)NC(=O)CNC(=O)[C@H](Cc2ccccc2)NC(=O)[C@H](CCCCN)NC(=O)[C@H](CCCCN)NC(=O)[C@H](CCCCN)NC(=O)[C@H](CO)NC(=O)[C@H](Cc2c[nH]cn2)NC(=O)[C@]2(C)CCCC=CCCC[C@](C)(NC(=O)CN)C(=O)NCC(=O)N[C@@H](CCCNC(=N)N)C(=O)N[C@@H](Cc3ccccc3)C(=O)N2)C(=O)N[C@@H](C(C)C)C(=O)NCC(=O)N[C@@H](CCC(=O)O)C(=O)N1)C(=O)N[C@@H](CC(N)=O)C(=O)N[C@@H](CO)C(N)=O` [Mag(i+4)1,15(A9K, K4R), GXGRFXHSKKKFGKAXVGEXBNS] (H-G[S5]GRF[S5]HSKKKFGKA[S5]VGE[S5][Nle]NS-NH2; staple 2-6, 16-20; N-terminus and C-terminus assumed), in the experiment with B cereus, the “MIC B cereus” value is 12.5 µg/mL (≈ 4.91 µM). In the experiment with S aureus, the “MIC S aureus” value is more than 50 µg/mL. For the same compound, in the experiment on E coli, the “MIC E coli” value came out at 3.1 µg/mL (≈ 1.22 µM). Also, the “MIC P aeruginosa” value in the experiment with P aeruginosa was determined as 6.2 µg/mL (≈ 2.43 µM).
The corresponding values for `CCCC[C@H](NC(=O)[C@]1(C)CCCC=CCCC[C@](C)(NC(=O)[C@H](C)NC(=O)[C@H](CCCCN)NC(=O)CNC(=O)[C@H](Cc2ccccc2)NC(=O)[C@H](CCCCN)NC(=O)[C@H](CCCCN)NC(=O)[C@H](CCCCN)NC(=O)[C@H](CO)NC(=O)[C@H](Cc2c[nH]cn2)NC(=O)[C@]2(C)CCCC=CCCC[C@](C)(NC(=O)CN)C(=O)NCC(=O)N[C@@H](Cc3c[nH]cn3)C(=O)N[C@@H](Cc3ccccc3)C(=O)N2)C(=O)N[C@@H](C(C)C)C(=O)NCC(=O)N[C@@H](CCC(=O)O)C(=O)N1)C(=O)N[C@@H](CC(N)=O)C(=O)N[C@@H](CO)C(N)=O` [Mag(i+4)1,15(A9K, K4H), GXGHFXHSKKKFGKAXVGEXBNS] (H-G[S5]GHF[S5]HSKKKFGKA[S5]VGE[S5][Nle]NS-NH2; staple 2-6, 16-20; N-terminus and C-terminus assumed) are 25 µg/mL (≈ 9.89 µM), more than 50 µg/mL, 3.1 µg/mL (≈ 1.23 µM) and 6.2 µg/mL (≈ 2.45 µM).

For the origin of these results see patent publication US11325955B2, “Stabilized anti-microbial peptides for the treatment of antibiotic-resistant bacterial infections” (priority 2017, dated 2022).
